Test results taken from patent US20230405003A1, “APPLICATION OF THYMIDINE DERIVATIVE IN PREPARATION OF DRUGS” (ONQUALITY PHARMACEUTICALS CHINA LTD., priority 2020, published 2023).

System: HaCaT cells
Assay: Relief of 5-FU proliferative toxicity to HaCaT cells (CCK-8 cell survival)
Format: cell-based
Details: for Cell Survival Rate (increased percentage of cell survival compared with the Group of 5-FU): 5-Fu 20 μM, HaCaT cells; for activation at 1 µM: compound 1 μM; for activation at 10 µM: compound 10 μM; for activation at 100 µM: compound 100 μM; for activation at 500 µM: compound 500 μM; for activation at 200 µM: compound 200 μM; for activation at 50 µM: compound 50 μM; for activation at 1000 µM: compound 1000 μM; for activation at 1500 µM: compound 1500 μM; for activation at 5 µM: compound 5 μM
Protocol: The cultured skin cell HaCaTs were digested, counted, and inoculated into a 96-well plate with 5000-10000 cells in each well. After 24 h of culture, the wells were divided into Group of blank solvent control, Group of 5-FU, Group of 5-FU+thymidine derivative, Group of 5-FU+the combination of thymidine derivative and uridine derivative. […] adding a solution of 5-FU and a solution of thymidine derivative (the final concentrations of 5-FU and thymidine derivative are shown in Table 3, the solution of thymidine is an aqueous solution, while the solutions of thymidine derivatives are all DMSO solutions); Group of 5-FU+the combination of thymidine derivative and uridine derivative: adding a solution of 5-FU and a mixed solution of thymidine derivative and uridine derivative (the final concentrations of the solution of 5-FU and the mixed solution of thymidine derivative+uridine derivative are shown in Table 3, the solution of thymidine is an aqueous solution, while the mixed solutions of thymidine derivative+uridine derivative are all DMSO solutions); Group of blank solvent control: adding the same type of solution as those of the corresponding Group of 5-FU or Group of 5-FU+thymidine derivative (or the mixed solution of thymidine derivative+uridine derivative) in equal volume. Group of blank solvent control was used as control to exclude the influence of the solvents in Group of 5-FU and Group of 5-FU+thymidine derivative (or the mixed solution of thymidine derivative+uridine derivative) on the results. After additional 48 hours of culture, a Cell Counting Kit-8 (CCK-8) detection kit (C0037, purchased from Shanghai Beyotime Biotechnology) is used to determine the cell survival rate, thereby calculating the proliferative toxicity of 5-Fu/5-DFUR on cells and the relieving effect of the thymidine derivative (or the mixed solution of thymidine derivative+uridine derivative) on the proliferative toxicity. Using GraphPad Prism 6.0 software, the results were statistically analyzed by t-test and plotted.
(§1) Table 3 lists the combinations of 5-FU and thymidine derivative (or the mixed solution of thymidine derivative+uridine derivative), and the corresponding experimental results (wherein the data in the column of cell survival indicate the corresponding increased percentage of the cell survivals of Group of 5-FU+thymidine derivative or Group of 5-FU+the combination of thymidine derivative and uridine derivative compared with the Group of 5-FU). FIGS. 3-10 list the experimental results of several representative compounds.
The effect of thymidine derivative or a combination of thymidine derivative and uridine derivative on relieving the proliferative toxicity of a chemotherapeutical drug (5-FU) to HaCaT cells was tested according to the method in Examples 2-29. The test thymidine derivative or the combination of thymidine derivative and uridine derivative, as well as the final concentration of the test compounds were shown in Table 7.
as §1, with “7” for “3”, “15-21” for “3-10”, “exemplary” for “representative”

[1] = selected compound final concentration 3.13 μM
[2] = selected compound final concentration 6.25 μM
[3] = selected compound final concentration 12.5 μM
[4] = selected compound final concentration 25 μM
[5] = selected compound final concentration 50 μM
[6] = selected compound final concentration 100 μM
[7] = selected compound final concentration 0.8 μM
[8] = selected compound final concentration 1.6 μM
[9] = Homo sapiens, HaCaT, increase vs Group of 5-FU, 5-FU 20 μM, 48 h, read-out: Cell Survival Rate

In the case of Cc1cn([C@H]2C[C@H](OC(=O)C(C)c3cccc(Oc4ccccc4)c3)[C@@H](COC(=O)C(C)c3cccc(Oc4ccccc4)c3)O2)c(=O)[nH]c1=O (stereo partly shown) [T46], the “Cell Survival Rate (increased percentage of cell survival compared with the Group of 5-FU)” value [1] was 27%-34%, the “Cell Survival Rate (increased percentage of cell survival compared with the Group of 5-FU)” value [2] was 34%-41% and the “Cell Survival Rate (increased percentage of cell survival compared with the Group of 5-FU)” value [3] was 48%-55%. For the same compound, the “Cell Survival Rate (increased percentage of cell survival compared with the Group of 5-FU)” value [4] was 61%-68%, the “Cell Survival Rate (increased percentage of cell survival compared with the Group of 5-FU)” value [5] was 65%-72% and the “Cell Survival Rate (increased percentage of cell survival compared with the Group of 5-FU)” value [6] was 75%-83%. For the same compound, the “Cell Survival Rate (increased percentage of cell survival compared with the Group of 5-FU)” value (selected compound final concentration 200 μM) was 54%-62%.
Cc1cn([C@H]2C[C@H](O)[C@@H](COC(=O)Cc3ccccc3Nc3c(Cl)cccc3Cl)O2)c(=O)[nH]c1=O [T39] was tested, and the “Cell Survival Rate (increased percentage of cell survival compared with the Group of 5-FU)” value [7] was 36%-43%, the “Cell Survival Rate (increased percentage of cell survival compared with the Group of 5-FU)” value [8] was 58%-66% and the “Cell Survival Rate (increased percentage of cell survival compared with the Group of 5-FU)” value [1] was 64%-71%. The “Cell Survival Rate (increased percentage of cell survival compared with the Group of 5-FU)” value [2] was 67%-74%, the “Cell Survival Rate (increased percentage of cell survival compared with the Group of 5-FU)” value [3] was 65%-72% and the “Cell Survival Rate (increased percentage of cell survival compared with the Group of 5-FU)” value [4] was 69%-77%. The “Cell Survival Rate (increased percentage of cell survival compared with the Group of 5-FU)” value [5] was 69%-77% and the “Cell Survival Rate (increased percentage of cell survival compared with the Group of 5-FU)” value [6] was 75%-83%.
For Cc1cn([C@H]2C[C@H](OC(=O)NC3CCCC3)[C@@H](COC(=O)NC3CCCC3)O2)c(=O)[nH]c1=O [T12], the activation at 1 µM [9] was 0 to 5% and the activation at 10 µM [9] was 9 to 16%.
In the case of Cc1cn([C@H]2C[C@H](OC(=O)C(C)c3cccc(Oc4ccccc4)c3)[C@@H](CO)O2)c(=O)[nH]c1=O (stereo partly shown) [T43], the “Cell Survival Rate (increased percentage of cell survival compared with the Group of 5-FU)” value [7] was 23%-31%, the “Cell Survival Rate (increased percentage of cell survival compared with the Group of 5-FU)” value [8] was 49%-56% and the “Cell Survival Rate (increased percentage of cell survival compared with the Group of 5-FU)” value [1] was 72%-79%. The “Cell Survival Rate (increased percentage of cell survival compared with the Group of 5-FU)” value [2] was 91%-98%, the “Cell Survival Rate (increased percentage of cell survival compared with the Group of 5-FU)” value [3] was 125%-133% and the “Cell Survival Rate (increased percentage of cell survival compared with the Group of 5-FU)” value [4] was 99%-106%. For the same compound, the “Cell Survival Rate (increased percentage of cell survival compared with the Group of 5-FU)” value [5] was 100%-107% and the “Cell Survival Rate (increased percentage of cell survival compared with the Group of 5-FU)” value [6] was 34%-41%.
In the case of Cc1cn([C@H]2C[C@H](O)[C@@H](COC(=O)OCc3ccccc3)O2)c(=O)[nH]c1=O [T19], the activation at 1 µM [9] was 35 to 45%, the activation at 10 µM [9] was 60 to 70% and the activation at 100 µM [9] was 58 to 67%. The activation at 500 µM [9] was 35 to 45%.
Work on Cc1cn([C@H]2C[C@H](OC(=O)C(C)(C)C)[C@@H](COC(=O)C(C)(C)C)O2)c(=O)[nH]c1=O [T24] yielded an activation at 1 µM [9] of 27 to 35% and an activation at 10 µM [9] of 21 to 27%.
Compound Cc1cn([C@H]2C[C@H](OC(=O)C(C)C)[C@@H](COC(=O)C(C)C)O2)c(=O)[nH]c1=O [T13] has an activation at 1 µM [9] of 15 to 25%, an activation at 10 µM [9] of 40 to 50% and an activation at 100 µM [9] of 25 to 35%.
CC(=O)NC[C@H]1O[C@@H](n2cc(C)c(=O)[nH]c2=O)C[C@@H]1OC(C)=O [T17] gave an activation at 1 µM [9] of 15 to 25%, an activation at 10 µM [9] of 18 to 26% and an activation at 100 µM [9] of 25 to 35%. The activation at 200 µM [9] was 30 to 40% and the activation at 500 µM [9] was 35 to 45%.
Cc1cn([C@H]2C[C@H](OC(=O)OCC(C)(C)C)[C@@H](COC(=O)OCC(C)(C)C)O2)c(=O)[nH]c1=O [T21] showed an activation at 1 µM [9] of 5 to 13% and an activation at 10 µM [9] of 19 to 26%.
Work on Cc1cn([C@H]2C[C@H](OC(=O)C3CC3)[C@@H](COC(=O)C3CC3)O2)c(=O)[nH]c1=O [T9] yielded an activation at 1 µM [9] of -10 to -3%, an activation at 10 µM [9] of 10 to 18% and an activation at 50 µM [9] of 24 to 31%. For the same compound, the activation at 200 µM [9] was 27 to 34%, the activation at 500 µM [9] was 30 to 38% and the activation at 1000 µM [9] was 35 to 40%. For the same compound, the activation at 1500 µM [9] was 13 to 20%.
For Cc1cn([C@H]2C[C@H](OC(=O)[C@@H](C)c3ccc(CC(C)C)cc3)[C@@H](COC(=O)[C@@H](C)c3ccc(CC(C)C)cc3)O2)c(=O)[nH]c1=O [T47], the “Cell Survival Rate (increased percentage of cell survival compared with the Group of 5-FU)” value (selected compound final concentration 8 μM) was 21%-28%, the “Cell Survival Rate (increased percentage of cell survival compared with the Group of 5-FU)” value (selected compound final concentration 16 μM) was 35%-42% and the “Cell Survival Rate (increased percentage of cell survival compared with the Group of 5-FU)” value (selected compound final concentration 32 μM) was 49%-56%. For the same compound, the “Cell Survival Rate (increased percentage of cell survival compared with the Group of 5-FU)” value (selected compound final concentration 62.5 μM) was 63%-71%, the “Cell Survival Rate (increased percentage of cell survival compared with the Group of 5-FU)” value (selected compound final concentration 125 μM) was 64%-72% and the “Cell Survival Rate (increased percentage of cell survival compared with the Group of 5-FU)” value (selected compound final concentration 250 μM) was 44%-51%. For the same compound, the “Cell Survival Rate (increased percentage of cell survival compared with the Group of 5-FU)” value (selected compound final concentration 500 μM) was 24%-31%.
With Cc1cn([C@H]2C[C@H](OC(=O)C3CCCC3)[C@@H](COC(=O)C3CCCC3)O2)c(=O)[nH]c1=O [T8] the activation at 1 µM [9] was 15 to 25%, the activation at 5 µM [9] was 27 to 37% and the activation at 10 µM [9] was 35 to 45%. The activation at 50 µM [9] was 32 to 39%, the activation at 100 µM [9] was 40 to 47% and the activation at 200 µM [9] was 3 to 9%.
Cc1cn([C@H]2C[C@H](O)[C@@H](CO[Si](C)(C)C(C)(C)C)O2)c(=O)[nH]c1=O [T18] gave an activation at 1 µM [9] of 6 to 12% and an activation at 10 µM [9] of 7 to 15%.
Cc1cn([C@H]2C[C@H](O)[C@@H](CO)O2)c(=O)[nH]c1=O [thymidine] showed an activation at 200 µM [9] of 3 to 8%, an activation at 1000 µM [9] of 15 to 23% and an activation at 1500 µM [9] of 11 to 17%. The activation at 2000 µM (Homo sapiens, HaCaT, increase vs Group of 5-FU, 5-FU 20 μM, compound 2000 μM, 48 h, read-out: Cell Survival Rate) was 1 to 6% and the activation at 3000 µM (Homo sapiens, HaCaT, increase vs Group of 5-FU, 5-FU 20 μM, compound 3000 μM, 48 h, read-out: Cell Survival Rate) was -25 to 20%.
For Cc1cn([C@H]2C[C@H](OC(=O)Cc3ccccc3)[C@@H](COC(=O)Cc3ccccc3)O2)c(=O)[nH]c1=O [T10], the activation at 1 µM [9] was 5 to 10%, the activation at 2 µM (Homo sapiens, HaCaT, increase vs Group of 5-FU, 5-FU 20 μM, compound 2 μM, 48 h, read-out: Cell Survival Rate) was 14 to 22% and the activation at 5 µM [9] was 35 to 45%. The activation at 10 µM [9] was 60 to 70%, the activation at 20 µM (Homo sapiens, HaCaT, increase vs Group of 5-FU, 5-FU 20 μM, compound 20 μM, 48 h, read-out: Cell Survival Rate) was 65 to 75% and the activation at 50 µM [9] was 65 to 75%.
Cc1cn([C@H]2C[C@H](OC(=O)OCC(C)C)[C@@H](COC(=O)OCC(C)C)O2)c(=O)[nH]c1=O [T20] showed an activation at 1 µM [9] of 48 to 58%, an activation at 10 µM [9] of 58 to 66% and an activation at 100 µM [9] of 55 to 65%.
For COc1ccc2c(c1)c(CC(=O)OC[C@H]1O[C@@H](n3cc(C)c(=O)[nH]c3=O)C[C@@H]1O)c(C)n2C(=O)c1ccc(Cl)cc1 [T38], the “Cell Survival Rate (increased percentage of cell survival compared with the Group of 5-FU)” value [7] was 13%-21%, the “Cell Survival Rate (increased percentage of cell survival compared with the Group of 5-FU)” value [8] was 29%-38% and the “Cell Survival Rate (increased percentage of cell survival compared with the Group of 5-FU)” value [1] was 38%-47%. The “Cell Survival Rate (increased percentage of cell survival compared with the Group of 5-FU)” value [2] was 46%-55%, the “Cell Survival Rate (increased percentage of cell survival compared with the Group of 5-FU)” value [3] was 53%-60% and the “Cell Survival Rate (increased percentage of cell survival compared with the Group of 5-FU)” value [4] was 58%-65%. The “Cell Survival Rate (increased percentage of cell survival compared with the Group of 5-FU)” value [5] was 67%-75% and the “Cell Survival Rate (increased percentage of cell survival compared with the Group of 5-FU)” value [6] was 55%-63%.
